Consider 14 substances from patent US11286299B2, “Peptides selective for Bcl-2 family proteins” (Massachusetts Institute of Technology, priority 2018, dated 2022).

Like-named read-outs stand apart in the source and are kept apart here.

Broadly, the Kd is the concentration at which binding is half-saturated.

Experiment [1] has as its target T1, Bcl-xL (Homo sapiens, UniProt Q07817). The conditions noted are these: cited from earlier work; for Ki: Table X3, previously reported selective peptides, read-out: reported affinity, Bcl-xL.
Experiment [2] has as its target T2, Mcl-1 (Homo sapiens, UniProt Q07820). The settings on record: cited from earlier work; for Ki: Table X3, previously reported selective peptides, read-out: reported affinity, Mcl-1.
The target in experiment [3] is T3, Bfl-1 (Homo sapiens, UniProt Q16548).
T3 sequence (Q16548 1-151): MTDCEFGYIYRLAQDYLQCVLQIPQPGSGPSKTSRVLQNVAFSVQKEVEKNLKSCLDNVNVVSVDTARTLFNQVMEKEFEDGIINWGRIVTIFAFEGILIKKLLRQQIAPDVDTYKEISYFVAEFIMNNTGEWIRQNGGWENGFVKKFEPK
The conditions noted are these: cited from earlier work.

The target in experiment [4] is T3, Bfl-1. Put plainly: Competition fluorescence polarization (anisotropy) binding assay. Also on record: Bfl-1 residues 1-151; made in house; host or cells: E. coli. As for the experimental part:
(§1) Fluorescence polarization competition binding assay Competition fluorescence polarization experiments were performed as described by Jenson et al. […]. Experiments were performed in triplicate, using the same protein and peptide preparations, and data were fit as described by Foight et al. (20) to a complete competitive binding model (47).
(Polarisation of emitted light reports the rotation of a fluorescent probe.)

Experiment [5] has as its target T2, Mcl-1. The description is as above. Also on record: Mcl-1 residues 172-327; made in house; host or cells: E. coli. The procedure:
as §1

Experiment [6] concerns the target T1, Bcl-xL. The experiment is described as above. Also on record: human Bcl-xL residues 1-209; made in house; host or cells: E. coli. The procedure: as §1
In experiment [7] the test system is B-ALL cell lines with engineered dependencies on human anti-apoptotic genes (Bfl-1, Mcl-1, Bcl-xL, Bcl-2). Nature of the experiment: Cellular BH3 profiling assay (mitochondrial depolarization, JC-1, permeabilized cells). The conditions noted are these: for pro-apoptotic response in dependent cell lines: permeabilized cells, Bfl-1 vs Mcl-1 or Bcl-xL dependent cell lines. The experiment is classed as cell-based, murine. The procedure: Cell Culture We used murine p185+ Arf^−/^− B-ALL suspension cell lines with engineered dependencies on the human anti-apoptotic genes (Bfl-1, Mcl-1, Bcl-xL), along with an apoptosis-resistant (Bax^−/−/Bak^−/−) control(51). Cells were grown in Roswell Park Memorial Institute (RPMI) 1640 medium supplemented with 10% (v/v) fetal bovine serum, 2 mM L-glutamine, 100 U/mL penicillin, […] streptomycin, 0.1 mM minimal essential medium nonessential amino acids, 25 mM HEPES and […] β-mercaptoethanol. Cell line authentication was performed by short tandem repeat (STR) analysis. Cell were monitored for mycoplasma contamination using the MycoAlert® Mycoplasma Detection Kit (Lonza, Rockland, Mass., USA).
Cellular BH3 profiling assay BH3 profiling was adapted from the protocol of Ryan and Letai (32). Peptides were diluted at the desired concentrations in MEB buffer (150 mM Mannitol, 10 mM HEPES-KOH pH 7.5, 50 mM KCl, 0.02 mM EGTA, 0.02 mM EDTA, 0.1% BSA and 5 mM succinate) containing […] oligomycin, […] digitonin, […] and 10 mM 2-mercaptoethanol in 384-well plates. […] Fluorescence emission was measured every 5 min for 3 hr at […] with 525 nm excitation on a Tecan Spark 10M. To produce percent depolarization, the area under the resulting curve was calculated and normalized to the assay controls. […]
Peptides were titrated by serial dilution in MEB buffer (150 mM Mannitol, 10 mM HEPES-KOH, pH 7.5, 50 mM KCl, 0.02 mM EGTA, 0.02 mM EDTA, 0.1% BSA and 5 mM Succinate) containing […] oligomycin, […] digitonin, […] and 10 mM 2-mercaptoethanol in 384-well plates. […] Fluorescence emission was measured every 5 min for 3 h at […] with 525 nm excitation on a Tecan Spark 10M. To produce percent depolarization, the area under the resulting curve was calculated and normalized to the assay controls. […]
As depicted in FIGS. 7-11, permeabilized cells were contacted with increasing doses of BH3 peptides, ad mitochondria outer membrane permeabilization (MOMP) was monitored using a voltage-sensitive dye (JC-1). […]

Experiment [8] has as its target T3, Bfl-1. Nature of the experiment: Yeast cell-surface display binding (FACS titration). The conditions noted are these: for binding to Bfl-1 in yeast display: SORTCERY designs; for reported affinity, Bfl-1: Table X3, this study, Bfl-1 specific peptides, cell-surface measurement, highest concentration tested 1000 nM. The arrangement: Bfl-1 residues 1-151; made in house; host or cells: E. coli. The text has this:
Protein constructs Anti-apoptotic protein constructs used in this work correspond to human Bcl-xL residues 1-209, Mcl-1 residues 172-327 and Bfl-1 residues 1-151, expressed in E. coli and purified as described by Dutta et al. (45).
Cells were filtered and washed 2× in chilled BSS before resuspending the labeled cells in BSS and using a BD FACSAria flow cytometer or a BD FACSCanto and FACSDiva software for cell sorting or analysis.
Crystals were flash frozen in liquid nitrogen.

The mark [9] stands for this setting: fluoresceinated Bim BH3 competitor, as reported by Dutta et al. 2013.
[10] abbreviates: Table X2, 50 nM protein, 25 nM fluoresceinated Bim BH3, SD of three replicates, read-out: Ki, Bfl-1.
The mark [11] stands for this setting: Table X3, this study, same values as Table X2, read-out: reported affinity, Bfl-1.
Where [12] appears, read: Table X2, 50 nM protein, 25 nM fluoresceinated Bim BH3, SD of three replicates, read-out: Ki, Mcl-1.
[13] abbreviates: Table X3, this study, same values as Table X2, read-out: reported affinity, Mcl-1.
[14] abbreviates: Table X2, 50 nM protein, 25 nM fluoresceinated Bim BH3, SD of three replicates, read-out: Ki, Bcl-xL.
Where [15] appears, read: Table X3, this study, same values as Table X2, read-out: reported affinity, Bcl-xL.

T2 sequence (Q07820 172-327): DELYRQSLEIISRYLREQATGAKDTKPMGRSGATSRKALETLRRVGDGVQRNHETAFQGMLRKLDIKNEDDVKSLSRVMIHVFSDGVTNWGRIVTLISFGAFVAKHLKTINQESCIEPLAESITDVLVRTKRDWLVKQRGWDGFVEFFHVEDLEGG
T1 sequence (Q07817 1-209): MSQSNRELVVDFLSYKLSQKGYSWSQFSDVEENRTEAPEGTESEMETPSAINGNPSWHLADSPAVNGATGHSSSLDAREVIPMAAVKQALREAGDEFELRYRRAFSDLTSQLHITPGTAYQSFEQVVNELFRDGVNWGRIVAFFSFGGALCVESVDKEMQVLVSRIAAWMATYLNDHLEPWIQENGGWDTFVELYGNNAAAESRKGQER

As to “(fl)IWIAQELRRIGDEFNAYY [Fluoresceinated Bim]”, the Kd with Bcl-xL [1] (setting [9]) is 0.006 ± 0.001 µM; in the experiment with Mcl-1 [2] (fluoresceinated Bim BH3 competitor, as reported by Dutta et al. 2013, read-out: Kd, Mcl-1), 0.0008 ± 0.0004 µM; in the experiment with Bfl-1 [3] (setting [9]), 0.004 ± 0.001 µM.
Turning to Ac-QPLIWFGAQLRRGADEFAAQRER-NH2 [srt.X7], the Ki on Bfl-1 [4] (setting [10]) was more than 4 µM; on Bfl-1 [4] (setting [11]), more than 4 µM; on Mcl-1 [5] (setting [12]) it was more than 4 µM; at Mcl-1 [5] (setting [13]), more than 4 µM; at Bcl-xL [6] (setting [14]), 0.0037 ± 0.0003 µM.
As to “Ac-QRIIWIAAELRRAADELDKQIER-NH2 [srt.XF02]”, the Ki at Mcl-1 [5] (setting [12]) was more than 4 µM.
On the same count and under the same terms, then “Ac-QRIIWIAAELRRAADQLDAQIER-NH2 [srt.XF03]”, with more than 4 µM.
Ac-QRVVHIAAGLRRTGDQLEAYGER-NH2 [srt.F4]: the “binding to Bfl-1 in the FP competition assay” value at Bfl-1 [4] is “undetectably”. In experiment [7], the “pro-apoptotic response in dependent cell lines” value was “selectively induced a pro-apoptotic response in Bfl-1 dependent cell lines, but not in Mcl-1 or Bcl-xL dependent cell lines”. For the same substance, at Bfl-1 [8], the “binding to Bfl-1 in yeast display” value is given as “bound Bfl-1 with high affinity in yeast display” and the “reported affinity, Bfl-1” value is listed as 14 ± 2 nM.
For the substance Ac-QTLIWYGASLRRYADEFAKQRER-NH2 [srt.X1], the Ki on Bfl-1 [4] (setting [10]) is more than 4 µM; at Bfl-1 [4] (setting [11]), more than 4 µM; at Mcl-1 [5] (setting [12]) it was more than 4 µM; on Mcl-1 [5] (setting [13]), more than 4 µM; at Bcl-xL [6] (setting [14]), 0.00132 ± 0.00018 µM.
For the substance “Ac-QWLRDVVAELARIADEFHAQYER-NH2 [srt.MX05]”, at Bfl-1 [4] (setting [10]), the Ki was more than 4 µM.
For the substance “Ac-QWLRWVIAELIRIADEFHAQYER-NH2 [srt.MX01]”, the Ki on Bfl-1 [4] (setting [10]) was more than 4 µM.
Consider “Ac-RRVDEIAQILRRIGDNVTTYIER-NH2 [srt.MF06]”, for which the Ki on Bcl-xL [6] (setting [14]) was more than 4 µM.
With “Ac-RRVVQIAAGLRRAGDQLEKYGER-NH2 [srt.F10]”, at Bfl-1 [4], the “binding to Bfl-1 in the FP competition assay” value is recorded as “weakly”. Also, in experiment [7], the “inhibition of Bfl-1 in the cellular assay relative to peptide FS1” value was “at least as potently as a previously described peptide” and the “pro-apoptotic response in dependent cell lines” value was “selectively induced a pro-apoptotic response in Bfl-1 dependent cell lines, but not in Mcl-1 or Bcl-xL dependent cell lines”. Besides, on Bfl-1 [8], the “binding to Bfl-1 in yeast display” value was “bound Bfl-1 with high affinity in yeast display” and the “reported affinity, Bfl-1” value is 3.2 ± 0.4 nM.
Take Ac-RSELEVVQELVRIGDIVVAYFER-NH2 [srt.M1]: the Ki at Bfl-1 [4] (setting [10]), at Bfl-1 [4] (setting [11]), at Bcl-xL [6] (setting [14]) and at Bcl-xL [6] (setting [15]) was more than 4 µM each time.
As to Ac-RSQYEVIQELIRIGDIVLAYFER-NH2 [srt.M9], the Ki was more than 4 µM on Bfl-1 [4] (setting [10]); more than 4 µM at Bfl-1 [4] (setting [11]); 0.0006 ± 0.0003 µM at Mcl-1 [5] (setting [12]); more than 4 µM on Bcl-xL [6] (setting [14]); more than 4 µM at Bcl-xL [6] (setting [15]).
With QWVREIAAGLRLAADNVNAQLER [FS1], the Ki was 2.4 ± 0.4 µM on Bcl-xL [1]; more than 5 µM on Mcl-1 [2]; 0.015 µM on Bfl-1 [3] (previously described peptide (ref 25), read-out: Ki for Bfl-1).
On to QWVREIAAGLRRAADDVNAQVER [FS2], for which the Ki on Bcl-xL [1] was more than 5 µM; on Mcl-1 [2], 3.2 ± 0.3 µM; on Bfl-1 [3] (Table X3, previously reported selective peptides, read-out: reported affinity, Bfl-1) it was 0.021 ± 0.006 µM. On Mcl-1 [2] (read-out: Kd for Mcl-1), the Kd is more than 3 µM.
